Reference: US20130123460A1, “PEPTIDE FOR IMPROVING BIOSTABILITY OF BIOACTIVE SUBSTANCE, AND BIOACTIVE SUBSTANCE HAVING IMPROVED BIOSTABILITY” (priority 2010, published 2013)
Where a SMILES comes first, the peptide text is derived from it. Bridges are numbered along the chain shown (N, C = ends).

How the values were obtained:
db/db mice = assay: Sustained blood glucose-lowering effect in type 2 diabetes mellitus model mice; format: in vivo; settings: subcutaneous, 50 nmol/kg
Procedure: The improvement of the biostability was evaluated using a duration time of blood glucose-lowering effect in vivo as an indicator. […] The blood glucose level was measured using Glucose Test Wako (Wako Pure Chemical Industries, Ltd.).

endogenous SSTR 5 = target: T1, endogenous SSTR 5 (Mus musculus, UniProt O08858); assay: Suppressibility of insulin secretion in MIN 6 cells; format: cell-based; settings: 20 mM glucose, 1-1000 nM
T1 construct: expressing an endogenous SSTR 5; endogenous in cells; host or cells: MIN 6 mouse insulinoma cells (obtained from a person)
T1 sequence (O08858 1-362): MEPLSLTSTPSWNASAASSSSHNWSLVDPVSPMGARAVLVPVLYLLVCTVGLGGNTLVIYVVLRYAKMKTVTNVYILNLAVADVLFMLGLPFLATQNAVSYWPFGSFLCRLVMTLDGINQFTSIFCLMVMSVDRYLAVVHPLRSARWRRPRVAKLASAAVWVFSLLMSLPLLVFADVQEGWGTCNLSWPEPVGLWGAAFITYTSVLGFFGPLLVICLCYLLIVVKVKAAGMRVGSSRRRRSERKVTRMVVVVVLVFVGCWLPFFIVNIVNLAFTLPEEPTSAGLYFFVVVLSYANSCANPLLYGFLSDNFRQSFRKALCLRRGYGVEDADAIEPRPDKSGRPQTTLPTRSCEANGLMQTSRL
Procedure: The suppressibility of insulin secretion was evaluated using MIN 6 (obtained from a person) which was an insulinoma cell derived from a mouse, expressing an endogenous SSTR 5. MIN 6 was seeded on a multi-plate, which was cultivated at 37° C. for 48 hours. […] A supernatant thereof was recovered, and an amount of insulin secreted was measured. The measurement of the insulin was performed in an enzyme-linked immunosorbent assay (ELISA), and an absorbance was measured at 450 nm (a sub-wavelength: 620 nm) after the addition of a substrate.
In this experiment, the activity evaluations of the native SRIF (Comparative Example 15) and the GAm (28-44)-SRIF-NH2(Example 29) were performed in a concentration of 1, 3, 10, 30, 100, 300, and 1000 nM, and the maximum suppression rate (%) of the insulin secretion was calculated. The maximum suppression rate (%) of the insulin secretion in the somatostatin peptide complex was calculated according to the following formula. Maximum Suppression Rate (%) of Insulin Secretion (%)=[{(the maximum value of the suppression of the insulin secretion in the SRIF peptide complex)/(the maximum value of the suppression of the insulin secretion in the native SRIF)]×100

[1] = Plasma stability of somatostatin peptide complex (remaining rate in rat plasma); settings: for remaining at 8 h, 0.5 μmol/L / remaining at 48 h, 0.5 μmol/L: SD, rat, plasma
Procedure: (§1) The plasma stability was evaluated in vitro, in order to inspect the biostability of the somatostatin peptide complex.
(§2) SD rats were anesthetized with diethyl ether, whole blood was collected, and a plasma fraction was separated therefrom. The somatostatin or somatostatin peptide complex was added to the plasma so that the final concentration thereof was 0.5 μmol/L, and the mixture was incubated at 37° C. A sample was recovered after 0, 8 or 48 hours, and a remaining rate was evaluated by an HPLC/MS measurement of an amount of the somatostatin or somatostatin peptide complex.

in vitro = settings: SD, rat, plasma
Procedure: as §1, §2

[2] = somatostatin complexes, rat plasma, 0.5 μmol/L, 37° C.

| Suppression rate of insulin secretion (%), maximum, relative to native SRIF (endogenous SSTR 5) | remaining at 8 h, 0.5 μmol/L [1] | remaining at 48 h, 0.5 μmol/L [1] | Remaining rate in plasma after 8 hours (%) [1, 2] | Remaining rate in plasma after 48 hours (%) ([1]; somatostatin complexes, rat plasma, 0.5 μmol/L, 37° C., 48 hours) | remaining at 8 h, 0.5 μmol/L (in vitro) | remaining at 48 h, 0.5 μmol/L (in vitro) | Molecule | Time after administration at which the glucose-lowering effect disappeared (db/db mice) |
| --- | --- | --- | --- | --- | --- | --- | --- | --- |
| – | – | – | – | – | – | – | [Ser8]-GLP-1(7-36)-NH2 [Comparative Example 2] | two hours |
| 100% | 0% | 0% | completely decomposed | – | – | – | C[C@H](N)C(=O)NCC(=O)N[C@H]1CSSC[C@@H](C(N)=O)NC(=O)[C@H](CO)NC(=O)[C@H]([C@@H](C)O)NC(=O)[C@H](Cc2ccccc2)NC(=O)[C@H]([C@@H](C)O)NC(=O)[C@H](CCCCN)NC(=O)[C@H](Cc2c[nH]c3ccccc23)NC(=O)[C@H](Cc2ccccc2)NC(=O)[C@H](Cc2ccccc2)NC(=O)[C@H](CC(N)=O)NC(=O)[C@H](CCCCN)NC1=O [Comparative Example 15, SRIF(1-14)-NH2, reference compound] | – |
| 90% | 80% | 23% | 80% | 23% | – | – | CC[C@H](C)[C@H](NC(=O)[C@H](CCC(=O)O)NC(=O)[C@H](CC(=O)O)NC(=O)[C@@H](NC(=O)[C@H](CC(C)C)NC(=O)[C@H](C)NC(=O)[C@H](CCCCN)NC(=O)[C@@H](NC(=O)CNC(=O)[C@H](CCC(=O)O)NC(=O)[C@@H](NC(=O)[C@@H](NC(=O)[C@H](CCCCN)NC(=O)[C@H](C)N)[C@@H](C)O)C(C)C)C(C)C)[C@@H](C)CC)C(=O)N[C@@H](CC(C)C)C(=O)N[C@@H](C)C(=O)N[C@@H](C)C(=O)N[C@@H](C)C(=O)NCC(=O)N[C@H]1CSSC[C@@H](C(N)=O)NC(=O)[C@H](CO)NC(=O)[C@H]([C@@H](C)O)NC(=O)[C@H](Cc2ccccc2)NC(=O)[C@H]([C@@H](C)O)NC(=O)[C@H](CCCCN)NC(=O)[C@H](Cc2c[nH]c3ccccc23)NC(=O)[C@H](Cc2ccccc2)NC(=O)[C@H](Cc2ccccc2)NC(=O)[C@H](CC(N)=O)NC(=O)[C@H](CCCCN)NC1=O [Example 29, GAm(28-44)-SRIF(1-14)-NH2] (H-AKTVEGVKALIDEILAAAGCKNFFWKTFTSC-NH2; disulfide 20-31; N-terminus assumed) | – |
| – | – | – | – | – | 56% | 0% | CC[C@H](C)[C@H](NC(=O)[C@H](CCC(=O)O)NC(=O)[C@H](CC(=O)O)NC(=O)[C@@H](NC(=O)[C@H](CC(C)C)NC(=O)[C@H](C)NC(=O)[C@H](CCCCN)NC(=O)[C@@H](NC(=O)CNC(=O)[C@H](CCC(=O)O)NC(=O)[C@@H](NC(=O)[C@@H](NC(=O)[C@H](CCCCN)NC(=O)[C@H](C)NC(=O)[C@@H]1CSSC[C@H](NC(=O)CNC(=O)[C@H](C)N)C(=O)N[C@@H](CCCCN)C(=O)N[C@@H](CC(N)=O)C(=O)N[C@@H](Cc2ccccc2)C(=O)N[C@@H](Cc2ccccc2)C(=O)N[C@@H](Cc2c[nH]c3ccccc23)C(=O)N[C@@H](CCCCN)C(=O)N[C@@H]([C@@H](C)O)C(=O)N[C@@H](Cc2ccccc2)C(=O)N[C@@H]([C@@H](C)O)C(=O)N[C@@H](CO)C(=O)N1)[C@@H](C)O)C(C)C)C(C)C)[C@@H](C)CC)C(=O)N[C@@H](CC(C)C)C(=O)N[C@@H](C)C(=O)N[C@@H](C)C(N)=O [Example 28, SRIF(1-14)-GAm(28-44)-NH2] (H-AGCKNFFWKTFTSCAKTVEGVKALIDEILAA-NH2; disulfide 3-14; N-terminus assumed) | – |
